Test results as given in paper PMC9629815, “MK256 is a novel CDK8 inhibitor with potent antitumor activity in AML through downregulation of the STAT pathway” (Oncotarget, 2022).
Converted amounts (≈) assume the structure as drawn. Where two headings read alike, the source gives them in different places.

What was measured:
Kinetic solubility assay = assay type: physicochemical
Method: MK256 was supplied as DMSO stock at 10 mM. 190 μL of buffer solution (PBS, pH 7.4) was added to all wells on a 96-well Millipore Solubility filter plate. 10 μL of MK256 or control compound testosterone was transferred in triplicate to the buffer wells to a final concentration of 500 μM. The filter plate was shaken for 1.5 hours at room temperature. Samples were filtered via a vacuum system into a fresh 96-well plate. Compounds were diluted to 500 μM (highest concentration) in DMSO and further diluted 1:10 for calibration curve (three-point). HPLC/UV analysis was performed on all samples (220 nm, 254 nm, and 280 nm).

CYP3A4-MDZ = CYP3A4-MDZ (Homo sapiens, UniProt P08684); assay: Cytochrome P450 inhibition assay; assay type: in vitro ADME; details: 50 uM
Sequence of CYP3A4-MDZ (P08684 whole entry): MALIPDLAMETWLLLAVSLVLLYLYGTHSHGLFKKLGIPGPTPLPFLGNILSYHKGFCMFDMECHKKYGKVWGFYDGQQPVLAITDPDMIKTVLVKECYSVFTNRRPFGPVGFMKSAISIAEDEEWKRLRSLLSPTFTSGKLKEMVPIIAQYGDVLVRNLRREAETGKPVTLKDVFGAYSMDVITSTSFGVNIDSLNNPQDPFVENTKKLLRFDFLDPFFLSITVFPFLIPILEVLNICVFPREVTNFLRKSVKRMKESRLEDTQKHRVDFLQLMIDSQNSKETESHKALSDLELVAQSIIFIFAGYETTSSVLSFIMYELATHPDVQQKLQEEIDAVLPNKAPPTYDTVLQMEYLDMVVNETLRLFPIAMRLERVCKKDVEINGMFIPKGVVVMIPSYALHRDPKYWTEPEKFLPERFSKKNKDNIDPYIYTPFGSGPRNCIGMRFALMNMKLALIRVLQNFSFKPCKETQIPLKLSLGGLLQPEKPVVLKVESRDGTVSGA

CYP1A2 = CYP1A2 (Homo sapiens, UniProt P05177); assay: Cytochrome P450 inhibition assay; assay type: in vitro ADME; details: 50 uM
Sequence of CYP1A2 (P05177 whole entry): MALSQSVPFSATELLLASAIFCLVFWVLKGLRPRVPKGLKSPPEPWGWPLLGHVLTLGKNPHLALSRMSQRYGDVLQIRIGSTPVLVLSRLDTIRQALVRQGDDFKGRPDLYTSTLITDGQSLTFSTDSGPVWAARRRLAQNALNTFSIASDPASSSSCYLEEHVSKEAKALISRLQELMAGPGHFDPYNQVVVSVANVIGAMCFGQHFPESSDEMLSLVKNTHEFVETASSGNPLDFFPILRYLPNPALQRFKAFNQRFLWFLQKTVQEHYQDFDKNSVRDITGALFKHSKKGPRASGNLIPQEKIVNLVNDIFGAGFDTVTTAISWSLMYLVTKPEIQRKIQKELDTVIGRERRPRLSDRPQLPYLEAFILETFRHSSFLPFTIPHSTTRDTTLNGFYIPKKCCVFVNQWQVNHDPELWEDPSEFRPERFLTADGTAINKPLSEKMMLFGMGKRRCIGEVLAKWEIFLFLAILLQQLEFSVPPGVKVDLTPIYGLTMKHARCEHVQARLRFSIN

[1] = system: CCL2 mRNA in MOLM-14 cells; assay: Real-time RT-PCR of CCL2 mRNA; assay type: cell-based
Method: (§1) Total RNA from the various cell lines was isolated using the RNeasy extraction method (Qiagen, Valencia, CA, USA). First-strand cDNA was synthesized from total RNA by iScript cDNA synthesis (Bio-Rad, Hercules, CA, USA) according to the manufacturer’s instructions. Taqman RT–PCR analysis was performed on cDNA in a 384-well plate, using a Prism 7900HT Real-Time PCR System (Applied Biosystems, Foster City, CA, USA). Primers and Taqman probes were purchased from Applied Biosystems. The expression of target genes MCL1 (Hs03043899_m1, Thermo fisher) and CCL2 (Hs00234140_m1, Thermo fisher) in each sample was assayed in triplicate and normalized to human GUSB for mRNA expression analysis. An unpaired t test was used to calculate statistical significance.

CCL2 mRNA in KG-1 cells = assay: Real-time RT-PCR of CCL2 mRNA; assay type: cell-based
Method: as §1

[2] = system: p-STATs, MCL-1, BCL-2, cleaved Parp, cleaved Caspase 3 in MOLM-14 cells; assay: Western blot of STAT pathway and apoptosis markers in MOLM-14 cells; assay type: cell-based; design: targeted p-STATs and MCL-1 levels / expression of BCL-2: dose or concentration left out as unconfirmed
Method: For the in vitro western blot study, MV-4-11 and MOLM-14 cells were plated (6-well) at 5 × 10^5 cells per well with medium containing 1% FBS overnight. MK-256 was added in different concentrations at different time points. […] Total protein concentration was measured using the Pierce BCA protein Assay Kit (23227, Thermo Fisher Scientific). Proteins were separated on SDS-PAGE and transferred to Nitrocellulose membrane.

[3] = Hepatocyte stability assay; assay type: in vitro ADME, Human
Method: (§2) Human LiverPoolTM 20-donor, dog and mouse cryopreserved hepatocytes were obtained from BioreclamationIVT. Cryopreserved hepatocytes were removed from the liquid nitrogen tank and thawed in a 37°C water bath. As soon as the cells pulled away from the vial wall, they were decanted into 48 ml of warm HT medium. Cells were centrifuged for four minutes at 420 rpm (50 g). After the supernatant was removed, the pellet was re-suspended in warm DMEM medium. Cell density was counted by a hemacytometer. The assay was carried out in 96-well microtiter plates. MK256 was incubated for 0, 60, 120, and 180 minutes at 37°C with hepatocytes. Reaction mixtures (50 μL) contained a final concentration of 1 μM MK256, 0.5 million cells/mL hepatocytes in the DMEM medium. At each time point (for example, 0, 1, 2, and 3 hrs), 200 μL of quench solution (100% acetonitrile with 0.1% formic acid) with internal standard were transferred to each well. […] All samples were analyzed on LC/MS/MS using an AB Sciex API 4000 instrument, coupled to a Shimadzu LC-20AD LC Pump system. […] The extent of metabolism was calculated as the disappearance of the test compound, compared to the 0-min control reaction incubations. Initial rates were calculated for the compound concentration and used to determine t1/2 values and subsequently, the intrinsic clearance, CLint = (0.693)(1/t1/2 (min))(mL incubation/million cells).

[4] = system: p-STAT1 (S727), p-STAT3(S727), p-STAT5(S726) in MOLM-14 xenograft tumors; assay: Pharmacodynamics study in MOLM-14 xenograft model (western blot of tumors); assay type: in vivo, mice; details: 10, 50 and 100 mg/kg oral, 6 hrs; with higher doses
Method: For the in vivo western blot study, to assess gene expression in vivo, tumors were induced in female NOD SCID mice by s.c. inoculation of 5 × 10^6 AML cells suspended in matrigel. Mice bearing tumors of at least 100 mm^3 were treated with MK256. Mice were sacrificed after 6 hrs and tumors were harvested. The tumors were homogenized and lysed in T-per Mammalian Protein Extraction Reagent (78510, Thermo Fisher Scientific) containing protease and phosphatase inhibitors (88669, Thermo Fisher Scientific). Total protein concentration was measured using the Pierce BCA protein Assay Kit (23227, Thermo Fisher Scientific). Proteins were separated on SDS-PAGE and transferred to Nitrocellulose membrane. Immunoblotting was performed using specific antibodies. The following specific antibodies were used: Cell signaling technology: pSTAT1(S727) #8826, pSTAT1(Y701) #9167, STAT1 #14994, pSTAT3 (S727) #9134, pSTAT3(Y705) #9145, STAT3 #9139, pSTAT5(Y694) #4322, STAT5 #25656, b-ACTIN #3700, GAPDH #5174, BCL2 #4223, MCL-1 #94296, Cleaved PARP #9541, Cleaved Caspase3 #9661, IL6ST #12859, SmyD3 #3732, PD-L1 #13684. Invitrogen: IL6R PA5109855. Abcam: pSTAT5(S726) ab128896.

[5] = Hepatocyte stability assay; assay type: in vitro ADME, Mouse
Method: as §2

Nc1nccc2c(Br)cc3cc(C(=O)O)ccc3c12 [MK256]
solubility kinetic at 1.5 h (Kinetic solubility assay; PBS buffer, aqueous buffer, kinetic from dmso stock, pH 7.4, read-out: KSOL (μM) PBS (PH 7.4)): 566 µM (≈ 180 µg/mL) | solubility kinetic at 1.5 h (Kinetic solubility assay; PBS, pH 7.4, read-out: KSOL (μM) PBS (PH 7.4)): 566 µM (≈ 180 µg/mL) | cytochrome P450 inhibition (CYP3A4-MDZ): no inhibition | cytochrome P450 inhibition (CYP1A2): no inhibition | mRNA level of CCL2 ([1]; 1 uM): abolished | mrna remaining at 0.3 µM ([1]; Homo sapiens, MOLM-14, 300 nM, read-out: mRNA level of CCL2 (remaining)): ~5% | expression of CCL2 downregulated to (CCL2 mRNA in KG-1 cells; 300 nM): approximately 50% | expression of CCL2 downregulated to (CCL2 mRNA in KG-1 cells; 1 uM): ~40% | levels of cleaved Parp and cleaved Caspase 3 ([2]; 30 nM to 3 mM, 48 hr): dose-dependent upregulation | p-levels of STATs, time course ([2]; 300 nM, 4 hrs and 24 hrs): further downregulated in a time-dependent manner | p-STAT1 (S727), p-STAT3(S727), p-STAT5(S726) levels ([2]; 2-hrs, various concentrations): dose-dependent inhibitions | MCL-1 level ([2]; 2 hrs): downregulated | expression of BCL-2 ([2]; 48 hr): unexpected upregulation | targeted p-STATs and MCL-1 levels ([2]; 48 hr): dose-dependent inhibition | Clint (μL·min^−1·mg protein^−1) ([3]; Human hepatocytes): 16 μL·min^−1·mg protein^−1 | half-life at 1 µM ([3]; human, cryopreserved human hepatocytes (LiverPool 20-donor), read-out: T½): 1.48 h | expression levels of p-STAT1 (S727), p-STAT3(S727), p-STAT5(S726) in tumors [4]: further downregulated | Clint (μL·min^−1·mg protein^−1) ([5]; Mouse hepatocytes): 5 μL·min^−1·mg protein^−1 | half-life at 1 µM ([5]; mouse, cryopreserved mouse hepatocytes, read-out: T½): 5.18 h
